Laboratory results from patent publication US10538486B2, “Hydroxamic acid type contrast agent containing radioisotope fluoride, preparation method and application thereof” (Institute of Nuclear Energy Research, Atomic Energy …, priority 2017, dated 2020).

Key:
Assay type in all cases: biochemical
Conditions in all cases: 4 concentrations in DMSO, 30 min at room temperature, fluorescence 355/460 nm, FIG. 5
HDAC8 = target: T1, HDAC8 (Homo sapiens, UniProt Q9BY41); assay: HDAC Fluorometric Assay Kit enzyme activity assay, HDAC8
T1 construct: purchased Enzolifesciences
T1 sequence (Q9BY41 1-377): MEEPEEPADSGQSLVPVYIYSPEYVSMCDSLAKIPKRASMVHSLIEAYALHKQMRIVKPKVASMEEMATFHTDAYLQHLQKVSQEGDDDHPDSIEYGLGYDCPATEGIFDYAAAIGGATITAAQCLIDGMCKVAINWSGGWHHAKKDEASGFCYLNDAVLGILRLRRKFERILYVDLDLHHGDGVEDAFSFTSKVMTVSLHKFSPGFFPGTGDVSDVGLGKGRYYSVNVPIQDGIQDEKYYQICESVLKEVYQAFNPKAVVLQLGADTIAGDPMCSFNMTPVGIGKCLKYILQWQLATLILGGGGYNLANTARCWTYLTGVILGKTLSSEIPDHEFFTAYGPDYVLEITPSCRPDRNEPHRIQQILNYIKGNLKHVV
Procedure: (§1) To further investigate whether the fluorine-18-hydroxamic acid-based compound is useful as a HDAC inhibitor, the inhibitory effect on HDAC is assayed with the fluorine-19-hydroxamic acid-based compound. The fluorine-18-hydroxamic acid-based compound and the fluorine-19-hydroxamic acid-based compound have the same chemical properties, except that the fluorine-18-hydroxamic acid-based compound has radioactivity, and the fluorine-19-hydroxamic acid-based compound has no radioactivity.
(§2) The fluorine-19-hydroxamic acid-based compound was diluted in dimethyl sulfoxide (DMSO) to give 4 different concentrations. The enzyme activity of various subtypes of HDAC was assayed with a HDAC Fluorometric Assay Kit (available from Enzolifesciences). The fluorine-19-hydroxamic acid-based compound (10 μL) and enzyme (15 μL) were added to a white opaque 96-well plate, and then a substrate (25 μL) was added and incubated for 30 min at room temperature. After incubation, the fluorescence intensity of the 96-well plate was measured on a microplate reader at an excitation wavelength of 355 nm and an emission wavelength of 460 nm, and the fluorescence intensity measured was analyzed by Graph Pad Prism 6 to calculate IC50 (as shown in FIG. 5).

HDAC6 = target: T2, HDAC6 (Homo sapiens, UniProt Q9UBN7); assay: HDAC Fluorometric Assay Kit enzyme activity assay, HDAC6
T2 construct: purchased Enzolifesciences
T2 sequence (Q9UBN7 1-1215): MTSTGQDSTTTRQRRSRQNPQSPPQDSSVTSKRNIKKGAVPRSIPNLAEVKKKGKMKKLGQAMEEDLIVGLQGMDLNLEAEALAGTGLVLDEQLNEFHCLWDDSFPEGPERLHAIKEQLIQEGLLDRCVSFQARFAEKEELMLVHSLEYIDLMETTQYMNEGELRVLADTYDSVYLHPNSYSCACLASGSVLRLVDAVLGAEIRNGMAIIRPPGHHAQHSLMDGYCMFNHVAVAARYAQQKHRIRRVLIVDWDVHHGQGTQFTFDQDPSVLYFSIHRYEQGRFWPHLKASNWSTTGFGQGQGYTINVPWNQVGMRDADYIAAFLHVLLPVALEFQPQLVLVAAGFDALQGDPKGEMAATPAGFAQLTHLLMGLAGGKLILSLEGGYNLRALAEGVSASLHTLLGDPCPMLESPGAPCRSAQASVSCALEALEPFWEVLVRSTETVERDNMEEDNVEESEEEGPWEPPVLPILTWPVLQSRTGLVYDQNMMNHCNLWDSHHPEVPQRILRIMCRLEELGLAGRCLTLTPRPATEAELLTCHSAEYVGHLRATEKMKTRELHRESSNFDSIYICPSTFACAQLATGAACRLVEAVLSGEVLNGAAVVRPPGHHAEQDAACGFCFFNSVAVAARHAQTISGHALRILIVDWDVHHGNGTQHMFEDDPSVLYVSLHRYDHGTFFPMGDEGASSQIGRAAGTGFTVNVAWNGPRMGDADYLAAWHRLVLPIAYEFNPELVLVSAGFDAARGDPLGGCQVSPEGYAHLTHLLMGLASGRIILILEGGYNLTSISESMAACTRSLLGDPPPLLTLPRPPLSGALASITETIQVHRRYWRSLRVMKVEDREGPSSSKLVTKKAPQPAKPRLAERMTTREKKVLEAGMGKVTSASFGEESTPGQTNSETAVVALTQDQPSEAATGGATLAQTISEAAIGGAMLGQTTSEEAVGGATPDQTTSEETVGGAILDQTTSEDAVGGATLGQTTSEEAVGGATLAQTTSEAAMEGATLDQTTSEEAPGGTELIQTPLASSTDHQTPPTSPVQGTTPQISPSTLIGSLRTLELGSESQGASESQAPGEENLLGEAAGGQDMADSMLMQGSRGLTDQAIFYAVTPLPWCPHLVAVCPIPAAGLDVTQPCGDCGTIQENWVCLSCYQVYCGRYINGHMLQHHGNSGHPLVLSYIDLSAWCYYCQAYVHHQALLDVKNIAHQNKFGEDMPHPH
Procedure: as §1, §2

HDAC3 = target: T3, HDAC3 (Homo sapiens, UniProt O15379); assay: HDAC Fluorometric Assay Kit enzyme activity assay, HDAC3
T3 construct: purchased Enzolifesciences
T3 sequence (O15379 whole entry, species assumed): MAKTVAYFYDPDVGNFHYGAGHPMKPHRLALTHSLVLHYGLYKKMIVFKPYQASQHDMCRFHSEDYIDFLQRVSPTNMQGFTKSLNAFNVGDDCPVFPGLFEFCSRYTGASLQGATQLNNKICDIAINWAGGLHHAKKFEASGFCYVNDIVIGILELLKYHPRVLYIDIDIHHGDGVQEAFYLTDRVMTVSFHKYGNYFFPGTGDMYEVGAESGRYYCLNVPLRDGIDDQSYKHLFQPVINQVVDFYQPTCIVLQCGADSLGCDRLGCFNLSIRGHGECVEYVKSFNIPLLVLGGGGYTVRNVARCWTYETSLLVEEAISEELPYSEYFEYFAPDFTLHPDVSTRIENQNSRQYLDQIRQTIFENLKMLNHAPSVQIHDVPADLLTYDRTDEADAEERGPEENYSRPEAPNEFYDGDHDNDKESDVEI
T3 sequence (O75376 395-489 partner limits assumed, species assumed): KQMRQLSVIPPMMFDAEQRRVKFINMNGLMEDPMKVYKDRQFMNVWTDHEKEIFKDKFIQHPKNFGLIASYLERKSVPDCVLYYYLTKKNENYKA
Procedure: as §1, §2

Cc1cc(F)ccc1OCCCC(=O)NO
selectively inhibited: IC50, inhibitory effect on HDAC8 (HDAC8) | IC50, inhibitory effect on HDAC6 (HDAC6) | IC50, inhibitory effect on HDAC3 (HDAC3)
